Test results published in patent US20240409585A1, “MACROCYCLIC IMMUNOMODULATORS” (priority 2021, published 2024).
Bridge positions count the residues as written; N and C are the ends. Square brackets hold non-standard residues; d marks the D form. Peptide text beside a SMILES is read from it. * marks the point of attachment. ξ: configuration not given here. Phe(4-COOH) = N[C@@H](Cc1ccc(C(=O)O)cc1)C(=O)O; Bip = N[C@@H](Cc1ccc(-c2ccccc2)cc1)C(=O)O; Phe(3-OMe) = COc1cccc(C[C@H](N)C(=O)O)c1; Phe(3-Me) = Cc1cccc(C[C@H](N)C(=O)O)c1; aIle = CC[C@@H](C)[C@H](N)C(=O)O; hPhe = N[C@@H](CCc1ccccc1)C(=O)O; 3Pal = N[C@@H](Cc1cccnc1)C(=O)O; 4Pal = N[C@@H](Cc1ccncc1)C(=O)O; Cha = N[C@@H](CC1CCCCC1)C(=O)O; Cit = NC(=O)NCCC[C@H](N)C(=O)O; Thr(3ξ) = CC(O)[C@H](N)C(=O)O; NMeNle = CCCC[C@H](NC)C(=O)O; Carboxymethyl = O=C(O)C*; NMeA = CN[C@@H](C)C(=O)O; Nle = CCCC[C@H](N)C(=O)O; Orn = NCCC[C@H](N)C(=O)O; Dab = NCC[C@H](N)C(=O)O; Nva = CCC[C@H](N)C(=O)O; ξV = CC(C)C(N)C(=O)O

What follows are compounds tested against T1, PE-labeled human PD-L1-Ig binding to Jurkat cell line over-expressing human PD-1 (Jurkat-PD-1) (Homo sapiens, UniProt Q15116) (assay: Jurkat-PD-1 Cell Binding High-Content Screening Assay (CBA): Method 1). Conditions: Jurkat-hPD-1 cells, PE-labeled PD-L1-Ig 20 nM final; read-out: Jurkat HPDL1 PD1 IC50 (uM) (Method 1).
T1 construct: expressed in transfected cells; host or cells: Jurkat
T1 sequence (Q15116 25-288): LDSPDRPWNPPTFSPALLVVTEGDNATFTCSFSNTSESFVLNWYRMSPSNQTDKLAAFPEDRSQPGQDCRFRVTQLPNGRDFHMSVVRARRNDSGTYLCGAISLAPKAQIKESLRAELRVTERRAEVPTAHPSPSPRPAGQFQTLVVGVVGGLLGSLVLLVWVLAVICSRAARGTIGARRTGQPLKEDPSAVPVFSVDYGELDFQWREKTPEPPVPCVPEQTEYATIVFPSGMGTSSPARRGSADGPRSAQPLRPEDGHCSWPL
With CC(C)C[C@@H]1NC(=O)[C@H](CCN)NC(=O)[C@@H](CC(C)C)NC(=O)[C@H](C)N(C)C(=O)[C@H](CCCNC(=N)N)NC(=O)[C@H](Cc2ccc(-c3ccccc3)cc2)NC(=O)[C@H](C(C)C)NC(=O)[C@H](Cc2c[nH]c3ccccc23)NC(=O)[C@H](CC(=O)O)NC(=O)[C@H](CCc2ccccc2)NC(=O)[C@H](CC(N)=O)NC(=O)CSC[C@@H](C(=O)N[C@@H](C)C(N)=O)NC(=O)[C@H]([C@@H](C)O)NC(=O)[C@H](C(C)C)NC1=O [Compound 1353] ({CH2CO}-N[hPhe]DWV[Bip]R[NMeA][dL][Dab]LVTCA-NH2; thioether N-14) the IC50 was 0.03 µM. CCCC[C@H]1C(=O)N[C@@H](Cc2ccc(C(=O)O)cc2)C(=O)N[C@@H](CC(=O)O)C(=O)N[C@@H](Cc2c[nH]c3ccccc23)C(=O)N[C@@H](C(C)C)C(=O)N[C@@H](Cc2ccc(-c3ccccc3)cc2)C(=O)N[C@@H](C(C)O)C(=O)N(C)[C@@H](C)C(=O)N[C@H](CC(C)C)C(=O)N[C@@H](CCN)C(=O)N[C@@H](CC2CCCCC2)C(=O)N[C@@H](C(C)C)C(=O)N[C@@H](C(C)O)C(=O)N[C@H](C(=O)N[C@@H](CCN)C(N)=O)CSCC(=O)N1C (stereo partly drawn) [Compound 2206] ({CH2CO}-[NMeNle][Phe(4-COOH)]DWV[Bip][Thr(3ξ)][NMeA][dL][Dab][Cha]V[Thr(3ξ)]C[Dab]-NH2; thioether N-14) gave an IC50 of 0.04 µM. In the case of CCCC[C@@H]1NC(=O)[C@H](CC(N)=O)NC(=O)[C@@H](C)NC(=O)[C@H](C)N(C)C(=O)[C@H](C(C)C)NC(=O)[C@H](Cc2ccc(-c3ccccc3)cc2)NC(=O)[C@H](CC(C)C)NC(=O)[C@H](Cc2c[nH]c3ccccc23)NC(=O)[C@H](CC(=O)O)NC(=O)[C@H](Cc2ccc(O)cc2)NC(=O)[C@H](Cc2ccccc2)NC(=O)CSC[C@@H](C(=O)N[C@@H](C)C(N)=O)NC(=O)[C@H]([C@@H](C)O)NC(=O)[C@H](CCCNC(=N)N)NC1=O [Compound 1816] ({CH2CO}-FYDWL[Bip]V[NMeA][dA]N[Nle]RTCA-NH2; thioether N-14), the IC50 is reported as 0.32 µM. With CCCC[C@H]1C(=O)N[C@H](CC(C)C)C(=O)N[C@@H](CCN)C(=O)N[C@@H](CC(C)C)C(=O)N[C@@H](C(C)C)C(=O)N[C@@H]([C@@H](C)O)C(=O)N[C@H](C(=O)N[C@@H](C)C(N)=O)CSCC(=O)N[C@@H](CC(N)=O)C(=O)N[C@@H](Cc2ccc(O)cc2)C(=O)N[C@@H](CC(=O)O)C(=O)N[C@@H](Cc2c[nH]c3ccccc23)C(=O)N[C@@H](C(C)C)C(=O)N[C@@H](Cc2ccc(-c3ccccc3)cc2)C(=O)N[C@@H](C(C)C)C(=O)N1C [Compound 1365] ({CH2CO}-NYDWV[Bip]V[NMeNle][dL][Dab]LVTCA-NH2; thioether N-14) the IC50 was 0.01 µM. Work on CC(C)C[C@H]1NC(=O)[C@H](C)N(C)C(=O)[C@H](CCCNC(=N)N)NC(=O)[C@H](Cc2ccc(-c3ccccc3)cc2)NC(=O)[C@H](C(C)C)NC(=O)[C@H](Cc2c[nH]c3ccccc23)NC(=O)[C@H](CC(=O)O)NC(=O)[C@H](Cc2ccc(O)cc2)NC(=O)[C@H](CC(N)=O)NC(=O)CSC[C@@H](C(=O)N[C@@H](C)C(N)=O)NC(=O)[C@H]([C@@H](C)O)NC(=O)[C@H](C(C)C)NC(=O)[C@H](CC2CCCCC2)NC(=O)[C@H](CCCNC(=N)N)NC1=O [Compound 1275] ({CH2CO}-NYDWV[Bip]R[NMeA][dL]R[Cha]VTCA-NH2; thioether N-14) yielded an IC50 of 0.03 µM. In the case of CC(C)C[C@@H]1NC(=O)[C@H](Cc2c[nH]c3ccccc23)NC(=O)[C@H](CC(=O)O)NC(=O)[C@H](Cc2ccncc2)NC(=O)[C@H](Cc2ccc(OCC(=O)O)cc2)NC(=O)CSC[C@@H](C(=O)N[C@@H](CCN)C(N)=O)NC(=O)[C@H](CO)NC(=O)[C@H](C(C)C)NC(=O)[C@H](CC2CCCCC2)NC(=O)[C@H](CCN)NC(=O)[C@@H](CC(C)C)NC(=O)[C@H](C)N(C)C(=O)[C@H](Cc2ccc(O)cc2)NC(=O)[C@H](Cc2ccc(-c3ccccc3)cc2)NC1=O [Compound 1908] ({CH2CO}-Y(Carboxymethyl)[4Pal]DWL[Bip]Y[NMeA][dL][Dab][Cha]VSC[Dab]-NH2; thioether N-14), the IC50 is reported as 0.04 µM. Compound CC(C)C[C@@H]1NC(=O)[C@H](Cc2c[nH]c3ccccc23)NC(=O)[C@H](CC(=O)O)NC(=O)[C@H](Cc2ccncc2)NC(=O)[C@H](Cc2ccc(OCC(=O)O)cc2)NC(=O)CSC[C@@H](C(=O)N[C@H](CC(N)=O)C(N)=O)NC(=O)[C@H](CO)NC(=O)[C@H](C(C)C)NC(=O)[C@H](CC2CCCCC2)NC(=O)[C@H](CCN)NC(=O)[C@@H](CC(C)C)NC(=O)[C@H](C)N(C)C(=O)[C@H](Cc2ccc(O)cc2)NC(=O)[C@H](Cc2ccc(-c3ccccc3)cc2)NC1=O [Compound 1907] ({CH2CO}-Y(Carboxymethyl)[4Pal]DWL[Bip]Y[NMeA][dL][Dab][Cha]VSC[dN]-NH2; thioether N-14) has an IC50 of 0.12 µM. COc1cccc(C[C@@H]2NC(=O)[C@H](CC(=O)O)NC(=O)[C@H](Cc3ccc(O)cc3)NC(=O)[C@H](Cc3ccccc3)NC(=O)CSC[C@@H](C(=O)NCC(N)=O)NC(=O)[C@H](CO)NC(=O)[C@H](C(C)C)NC(=O)[C@H](CC(C)C)NC(=O)[C@H](CC(N)=O)NC(=O)[C@@H](CC(C)C)NC(=O)[C@H](C)N(C)C(=O)[C@H](C(C)C)NC(=O)[C@H](Cc3ccc(-c4ccccc4)cc3)NC(=O)[C@H](CC(C)C)NC2=O)c1 [Compound 1516] ({CH2CO}-FYD[Phe(3-OMe)]L[Bip]V[NMeA][dL]NLVSCG-NH2; thioether N-14) was tested, and the IC50 was 0.02 µM. Compound CC(C)C[C@@H]1NC(=O)[C@H](CCN)NC(=O)[C@@H](CC(C)C)NC(=O)[C@H]2CCCN2C(=O)[C@H](C(C)C)NC(=O)[C@H](Cc2ccc(-c3ccccc3)cc2)NC(=O)[C@H](C(C)C)NC(=O)[C@H](Cc2c[nH]c3ccccc23)NC(=O)[C@H](CC(=O)O)NC(=O)[C@H](Cc2ccc(O)cc2)NC(=O)[C@H](CC(N)=O)NC(=O)CSC[C@@H](C(=O)N[C@@H](C)C(N)=O)NC(=O)[C@H]([C@@H](C)O)NC(=O)[C@H](C(C)C)NC1=O [Compound 1279] ({CH2CO}-NYDWV[Bip]V[dP][dL][Dab]LVTCA-NH2; thioether N-14) has an IC50 of 0.02 µM. CC(=O)NCCCC[C@@H]1NC(=O)[C@H](Cc2ccc(-c3ccccc3)cc2)NC(=O)[C@H](Cc2ccc(O)cc2)NC(=O)[C@H](Cc2cccc(C)c2)NC(=O)[C@H](CC(=O)O)NC(=O)[C@H](Cc2ccc(OCC(=O)O)cc2)NC(=O)[C@H](C(C)O)NC(=O)CSC[C@@H](C(=O)N[C@@H](CO)C(N)=O)NC(=O)[C@H](C(C)O)NC(=O)[C@H](C(C)C)NC(=O)[C@H](CC2CCCCC2)NC(=O)[C@H](CCN)NC(=O)[C@@H](CC(C)C)NC(=O)[C@H](C)N(C)C1=O (stereo partly drawn) [Compound 2119] ({CH2CO}-[Thr(3ξ)]Y(Carboxymethyl)D[Phe(3-Me)]Y[Bip]K(Ac)[NMeA][dL][Dab][Cha]V[Thr(3ξ)]CS-NH2; thioether N-14) gave an IC50 of 0.02 µM. For CCC[C@@H]1NC(=O)[C@H](Cc2ccc(-c3ccccc3)cc2)NC(=O)[C@H](C(C)C)NC(=O)[C@H](Cc2c[nH]c3ccccc23)NC(=O)[C@H](CC(=O)O)NC(=O)[C@H](Cc2ccc(O)cc2)NC(=O)[C@H](CC(N)=O)NC(=O)CSC[C@@H](C(=O)N[C@@H](C)C(N)=O)NC(=O)[C@H]([C@@H](C)O)NC(=O)[C@H](C(C)C)NC(=O)[C@H](CC(C)C)NC(=O)[C@H](CCN)NC(=O)[C@@H](CC(C)C)NC(=O)[C@H](C)N(C)C1=O [Compound 1258] ({CH2CO}-NYDWV[Bip][Nva][NMeA][dL][Dab]LVTCA-NH2; thioether N-14), the IC50 was 0.04 µM. For CC[C@@H](C)[C@@H]1NC(=O)[C@H](Cc2ccc(-c3ccccc3)cc2)NC(=O)[C@H](CC(C)C)NC(=O)[C@H](Cc2c[nH]c3ccccc23)NC(=O)[C@H](CC(=O)O)NC(=O)[C@H](Cc2ccc(C(=O)O)cc2)NC(=O)[C@H](Cc2ccc(OCC(=O)O)cc2)NC(=O)CSC[C@@H](C(=O)N[C@@H](CCCCN)C(N)=O)NC(=O)[C@H](CC(N)=O)NC(=O)C(C(C)C)NC(=O)[C@H](CC(C)C)NC(=O)[C@H](CC(N)=O)NC(=O)[C@@H](CC(C)C)NC(=O)[C@H](C)N(C)C1=O (stereo partly drawn) [Compound 2109] ({CH2CO}-Y(Carboxymethyl)[Phe(4-COOH)]DWL[Bip][aIle][NMeA][dL]NL[ξV]NCK-NH2; thioether N-14), the IC50 was 0.2 µM. CC(C)C[C@@H]1NC(=O)[C@H](Cc2c[nH]c3ccccc23)NC(=O)[C@H](CC(=O)O)NC(=O)[C@H](Cc2ccc(O)cc2)NC(=O)[C@H](Cc2cccnc2)NC(=O)CSC[C@@H](C(=O)N[C@@H](C)C(N)=O)NC(=O)[C@H](CO)NC(=O)[C@H](C(C)C)NC(=O)[C@H](CC(C)C)NC(=O)[C@H](CC(N)=O)NC(=O)[C@@H](C)NC(=O)[C@H](C)N(C)C(=O)[C@H](C(C)C)NC(=O)[C@H](Cc2ccc(-c3ccccc3)cc2)NC1=O [Compound 1741] ({CH2CO}-[3Pal]YDWL[Bip]V[NMeA][dA]NLVSCA-NH2; thioether N-14) showed an IC50 of 0.02 µM. With CC(C)C[C@@H]1NC(=O)[C@H](CCCN)NC(=O)[C@@H](CC(C)C)NC(=O)[C@H](C)N(C)C(=O)[C@H](CCC(=O)O)NC(=O)[C@H](Cc2ccc(-c3ccccc3)cc2)NC(=O)[C@H](C(C)C)NC(=O)[C@H](Cc2c[nH]c3ccccc23)NC(=O)[C@H](CC(=O)O)NC(=O)[C@H](Cc2ccc(O)cc2)NC(=O)[C@H](Cc2ccccc2)NC(=O)CSC[C@@H](C(=O)N[C@@H](CCC(=O)O)C(N)=O)NC(=O)[C@H]([C@@H](C)O)NC(=O)[C@H](C(C)C)NC1=O [Compound 1163] ({CH2CO}-FYDWV[Bip]E[NMeA][dL][Orn]LVTCE-NH2; thioether N-14) the IC50 was 0.04 µM. Compound CC(C)C[C@@H]1NC(=O)[C@H](CCCN)NC(=O)[C@@H](CC(C)C)NC(=O)[C@H](C)N(C)C(=O)[C@H](CCCNC(N)=O)NC(=O)[C@H](Cc2ccc(-c3ccccc3)cc2)NC(=O)[C@H](C(C)C)NC(=O)[C@H](Cc2c[nH]c3ccccc23)NC(=O)[C@H](CC(=O)O)NC(=O)[C@H](Cc2ccc(O)cc2)NC(=O)[C@H](CC(N)=O)NC(=O)CSC[C@@H](C(=O)NCC(N)=O)NC(=O)[C@H]([C@@H](C)O)NC(=O)[C@H](C(C)C)NC1=O [Compound 1235] ({CH2CO}-NYDWV[Bip][Cit][NMeA][dL][Orn]LVTCG-NH2; thioether N-14) has an IC50 of 0.06 µM.
